Where two headings read alike, the source gives them in different places.
Legend:
[1] = cytotoxicity on HeLa cells; format: cell-based; conditions: human, HeLa cells
Method: (§1) Compounds were tested for their antiproliferative activity on HUVEC and K-562 cells and for cytotoxicity on HeLa cells using standard protocols. K-562 (DSM ACC 10), HUVEC (ATCC CRL-1730), and HeLa (DSM ACC 57) cells were cultured as described previously. To assay the antiproliferative and cytotoxic effect, procedures were carried out as described before. In brief, for each experiment with K-562 and HeLa ∼10,000 cells were seeded per well of the 96-well microplates. For the cytotoxicity assay, the HeLa cells were preincubated for 48 h without the test substances. Cells were incubated for 72 h at 37 °C in a humidified atmosphere and 5% CO2. Suspension cultures of K-562 in microplates were analysed by an electronic cell analyzer system CASY 1 (SCHÄRFE, Reutlingen, Germany). The monolayer of the HUVEC and HeLa cells were fixed by glutaraldehyde (MERCK) and stained with a 0.05% solution of methylene blue (SERVA). After gently washing, the stain was eluted by 0.2 ml of 0.33 N HCl in the wells. The optical densities were measured at 660 nm in a microplate reader. The calculations of the different values of GI50 and CC50 were performed with the software Magellan (TECAN).

K-562 = assay: antiproliferative activity on K-562 cells; format: cell-based; conditions: Homo sapiens, K562, 72 h
Method: as §1

[2] = system: P. falciparum (strain 3D7); assay: 72 h 3H-hypoxanthine incorporation assay, asexual blood stages; format: cell-based, Plasmodium falciparum; conditions: Plasmodium falciparum
HUVEC = assay: antiproliferative activity on HUVEC cells; format: cell-based; conditions: Homo sapiens, HUVEC, 72 h
Method: as §1

haem = assay: ESI-MS collision-induced dissociation of haem adducts; format: binding; conditions: 50 µM haem and 50 µM substrate; for DV50 (dissociation voltage at 50%) of haem adduct: ESI-CID, 20 V to 400 V; for Bottom plateau (adduct remaining at 400 V): fragmentor voltage 400 V
Method: Compound Molar Adduct DV50 Bottom Dissociation mass [Haem+S] (V) plateau Constant
Supplementary Table 7. ESI-MS-CID data (m/z, calculated DV50 = dissociation voltage at 50% and % bottom plateau) of the [haematin-drug]+ adducts and dissociation constants (KD, µM) of the haematin-drug complexes measured with absorption spectrophotometric titrations.
Conditions: 50 µM haem and 50 µM substrate in H2O/CH3CN (5/95) + 0.1% formic acid.
Stability responses of the haem substrate adduct were obtained via ESI-CID experiments.
Positive mode; fragmentor voltage from 20 V to 400 V with 20 V increments. […]
- 41/120 g), and complete dissolution was achieved using an ultrasonic bath. All solutions were protected from daylight to avoid any photochemical degradation. All the physiochemical measurements were carried out at 25.0(2) °C. […]
Electrospray mass spectrometric measurements stopping point
Electrospray mass spectra of the haem complexes were obtained with an Agilent Technologies 6120 quadrupole equipped with an electrospray (ESI) interface. For

[3] = 3D7, 72 h 3H-hypoxanthine incorporation, asexual blood stages, read-out: Antiplasmodial activity IC50 Pf (3D7)
[4] = 3D7, non-steroid-derived analogs, read-out: IC50 on P. falciparum 3D7 asexual blood stages

COc1ccc2c(c1)CCC1C2CC[C@@]2(C)C1C[C@H](NCc1ccccc1O)[C@@H]2O (stereo partly shown) [8c]
CC50 at 72 h [1]: 5.9 µM | GI50 (K-562): 0.5 µM | IC50 [2, 3]: 0.224 µM | GI50 (HUVEC): 2.5 µM

COc1ccc2c(c1)CCC1C2CC[C@@]2(C)C1CC[C@@H]2NCc1cccc(O)c1 (stereo partly shown) [2e]
IC50 [2, 3]: 0.741 µM

Oc1ccccc1CNC1CCCCCCC1 [17c]
IC50 [2, 3]: 2 µM | IC50 [2, 4]: ~2 µM

COc1ccc2c(c1)CCC1C2CC[C@@]2(C)C1C[C@@H](NCc1cc(Cl)ccc1O)[C@@H]2O (stereo partly shown) [7s]
IC50 [2, 3]: 0.055 µM

Oc1ccccc1CNC1CCCC1 [15c]
IC50 [2, 4]: > 6 µM

COc1ccc2c(c1)CCC1C2CC[C@@]2(C)C1C[C@H](/N=C/c1ccccc1O)[C@@H]2O (stereo partly shown) [8b]
IC50 [2, 3]: > 2.5 µM

Oc1ccccc1CNC12CC3CC(CC(C3)C1)C2 [18c]
IC50 [2, 4]: 4 µM

COc1ccc2c(c1)CCC1C2CC[C@@]2(C)C1CC[C@@H]2NCc1cc(Cl)ccc1O (stereo partly shown) [2s]
IC50 [2, 3]: 0.062 µM

CCN(CC)c1ccc(/C=N/[C@H]2CCC3C4CCc5cc(OC)ccc5C4CC[C@@]32C)c(O)c1 (stereo partly shown) [2p]
IC50 [2, 3]: > 5 µM

COc1ccc2c(c1)CCC1C2CCC2(C)C(NCc3cccc(O)c3)CCC12 (stereo not shown) [1e]
IC50 [2, 3]: 0.434 µM

Oc1ccccc1CNC1CCCCC1 [16c]
IC50 [2, 4]: > 6 µM

COc1ccc2c(c1)CCC1C2CC[C@@]2(C)C1C[C@@H](NCc1cc(Cl)ccc1O)[C@H]2O (stereo partly shown) [5s]
IC50 [2, 3]: 0.099 µM

COc1ccc2c(c1)CCC1C2CC[C@]2(C)C1C[C@@H](NCc1ccccc1O)[C@@H]2O (stereo partly shown) [10c]
CC50 at 72 h [1]: 11.5 µM | GI50 (K-562): 2.5 µM | IC50 [2, 3]: 0.084 µM | GI50 (HUVEC): 2.9 µM

COc1ccc2c(c1)CCC1C2CCC2(C)C(NCc3ccc(O)cc3)CCC12 (stereo not shown) [1g]
IC50 [2, 3]: 0.116 µM

COc1ccc2c(c1)CCC1C2CC[C@]2(C)C[C@H](N)CC12 (stereo partly shown) [3a]
IC50 [2, 3]: > 1 µM

COc1ccc2c(c1)CCC1C2CC[C@@]2(C)C1CC[C@@H]2NCc1c(O)ccc2ccccc12 (stereo partly shown) [2m]
IC50 [2, 3]: 0.183 µM

CCN(CC)c1ccc(CN[C@H]2CCC3C4CCc5cc(OC)ccc5C4CC[C@@]32C)c(O)c1 (stereo partly shown) [2q]
IC50 [2, 3]: 0.713 µM

COc1ccc2c(c1)CCC1C2CCC2(C)C(NCc3ccccc3OC)CCC12 (stereo not shown) [1i]
IC50 [2, 3]: 0.872 µM

COc1ccc2c(c1)CCC1C2CC[C@@]2(C)C1CC[C@@H]2N (stereo partly shown) [2a]
DV50 (dissociation voltage at 50%) of haem adduct (haem): 210 V | Bottom plateau (adduct remaining at 400 V) (haem): 1.8% | IC50 [2, 3]: > 1 µM

COc1ccc2c(c1)CCC1C2CC[C@@]2(C)C1C[C@H](NCc1cc(C(C)(C)C)cc(C(C)(C)C)c1O)[C@H]2O (stereo partly shown) [6w]
IC50 [2, 3]: 1.62 µM

COc1ccc2c(c1)CCC1C2CC[C@@]2(C)C1CC[C@@H]2NCc1cc([N+](=O)[O-])ccc1O (stereo partly shown) [2u]
IC50 [2, 3]: 0.114 µM

Oc1cc2ccccc2cc1/C=N/c1ccc2ccc3cccc4ccc1c2c34 [20n]
IC50 [2, 3]: > 13 µM

Oc1ccccc1CNc1ccccc1 [19c]
IC50 [2, 4]: > 15 µM

COc1ccc2c(c1)CCC1C2CC[C@@]2(C)C1C[C@@H](NCc1ccccc1O)[C@@H]2O (stereo partly shown) [7c]
CC50 at 72 h [1]: 10.1 µM | GI50 (K-562): 2 µM | IC50 [2, 3]: 0.12 µM | GI50 (HUVEC): 1.2 µM

COc1ccc2c(c1)CCC1C2CC[C@]2(C)C[C@H](NCc3ccccc3O)CC12 (stereo partly shown) [3c]
CC50 at 72 h [1]: 20.7 µM | GI50 (K-562): 3.8 µM | IC50 [2, 3]: 0.042 µM | GI50 (HUVEC): 4.1 µM

COc1ccc2c(c1)CCC1C2CC[C@]2(C)C[C@@H](N)CC12 (stereo partly shown) [4a]
IC50 [2, 3]: > 1 µM

CC(C)CCC[C@@H](C)[C@H]1CCC2C3CCC4C[C@@H](O)[C@@H](O)[C@H](NCc5ccccc5O)[C@]4(C)C3CC[C@@]21C (stereo partly shown) [12c]
CC50 at 72 h [1]: 38 µM | GI50 (K-562): 16.5 µM | IC50 [2, 3]: 4.36 µM | GI50 (HUVEC): 12.4 µM

C=CC1=C(C)c2cc3[n-]c(cc4[n-]c(cc5nc(cc1n2)C(C)=C5C=C)c(C)c4CCC(=O)O)c(CCC(=O)O)c3C.O.[Fe+2] [hematin, reference compound]
DV50 (dissociation voltage at 50%) of haem adduct (haem): 329 V | Bottom plateau (adduct remaining at 400 V) (haem): ~ 28%

Oc1cc2ccccc2cc1CNc1ccc2ccc3cccc4ccc1c2c34 [20o]
IC50 [2, 3]: > 13 µM

COc1ccc2c(c1)CCC1C2CC[C@]2(C)C[C@@H](NCc3ccccc3O)CC12 (stereo partly shown) [4c]
CC50 at 72 h [1]: 12 µM | GI50 (K-562): 2.6 µM | IC50 [2, 3]: 0.063 µM | GI50 (HUVEC): 3.1 µM

Oc1ccccc1/C=N/c1ccc2ccc3cccc4ccc1c2c34 [20b]
IC50 [2, 3]: > 15 µM

COc1ccc2c(c1)CCC1C2CC[C@@]2(C)C1C[C@@H](NCc1ccccc1O)[C@H]2O (stereo partly shown) [5c]
CC50 at 72 h [1]: 11.3 µM | GI50 (K-562): 2 µM | IC50 [2, 3]: 0.16 µM | GI50 (HUVEC): 2.2 µM

COc1ccc(CNC2CCC3C4CCc5cc(OC)ccc5C4CCC23C)cc1 (stereo not shown) [1k]
IC50 [2, 3]: 1.01 µM

COc1ccc2c(c1)CCC1C2CC[C@]2(C)C1CC(NCc1ccccc1O)[C@@H]2O (stereo partly shown) [9c]
CC50 at 72 h [1]: 48.8 µM | GI50 (K-562): 8.4 µM | IC50 [2, 3]: 0.999 µM | GI50 (HUVEC): 11.2 µM

COc1ccc2c(c1)CCC1C2CC[C@@]2(C)C1CC[C@@H]2/N=C/c1cc2ccccc2cc1O (stereo partly shown) [2n]
IC50 [2, 3]: 5.54 µM

COc1ccc2c(c1)CCC1C2CC[C@@]2(C)C1CC[C@H]2N (stereo partly shown) [1a]
DV50 (dissociation voltage at 50%) of haem adduct (haem): 218 V | Bottom plateau (adduct remaining at 400 V) (haem): 1.2% | IC50 [2, 3]: > 1 µM

COc1ccc2c(c1)CCC1C2CC[C@@]2(C)C1C[C@H](NCc1ccccc1O)[C@H]2O (stereo partly shown) [6c]
CC50 at 72 h [1]: 11.3 µM | GI50 (K-562): 2.5 µM | IC50 [2, 3]: 0.676 µM | GI50 (HUVEC): 4.4 µM

COc1ccc2c(c1)CCC1C2CC[C@@]2(C)C1CC[C@H]2/N=C/c1ccccc1O (stereo partly shown) [1b]
IC50 [2, 3]: > 2.5 µM

COc1ccc2c(c1)CCC1C2CC[C@]2(C)C1C[C@H](NCc1ccccc1O)[C@@H]2O (stereo partly shown) [11c]
CC50 at 72 h [1]: 6.4 µM | GI50 (K-562): 0.1 µM | IC50 [2, 3]: 0.141 µM | GI50 (HUVEC): 22 µM

CCN(CC)Cc1cc(Nc2ccnc3cc(Cl)ccc23)ccc1O [amodiaquine, reference compound]
DV50 (dissociation voltage at 50%) of haem adduct (haem): 212 V | Bottom plateau (adduct remaining at 400 V) (haem): 7%

COc1ccc2c(c1)CCC1C2CC[C@@]2(C)C1CC[C@H]2NCc1cc(Cl)ccc1O (stereo partly shown) [1s]
IC50 [2, 3]: 0.011 µM

COc1ccc2c(c1)CCC1C2CC[C@@]2(C)C1CC[C@@H]2/N=C/c1ccccc1O (stereo partly shown) [2b]
IC50 [2, 3]: > 2.5 µM

Reference: paper PMC5321741, “Arylmethylamino steroids as antiparasitic agents” (Nature Communications, 2017)
